Measurements as given in patent publication US20060069132A1, “Azolecarboxamide herbicides” (priority 2004, published 2006).

Columns and labels:
barnyardgrass [1] = assay: Test B pre-/postemergence herbicide test; format: in vivo, Echinochloa crus-galli; conditions: for Barnyardgrass plant response rating: postemergence, scale 0 (no effect) to 100 (complete control)
Summary of the method: (§1)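 Seeds were planted and treated preemergence with compounds formulated in a non-phytotoxic solvent mixture containing surfactant, while plants at the 1- to 4-leaf stage (2 to 18 cm) received postemergence sprays. Flooded paddy plants were grown to the 2-leaf stage. After 13 to 15 days in a greenhouse, injury was visually rated 0–100 against untreated controls.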

Surinam grass = assay: Test B pre-/postemergence herbicide test; format: in vivo, Urochloa decumbens; conditions: for Surinam Grass plant response rating: postemergence
Summary of the method: (§2)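 Test chemicals in a non-phytotoxic solvent mixture with surfactant were applied preemergence to seeded species and postemergence to plants 2-18 cm tall (1- to 4-leaf stage); rice and barnyardgrass were also tested in a flooded paddy at the 2-leaf stage. Visual rating versus controls after 13-15 days in greenhouse, scale 0 (no effect) to 100 (complete control).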

cocklebur = assay: Test B pre-/postemergence herbicide test; format: in vivo, Xanthium strumarium; conditions: for Cocklebur plant response rating: postemergence, scale 0 (no effect) to 100 (complete control)
Summary of the method: as §1

corn = assay: Test B pre-/postemergence herbicide test; format: in vivo, Zea mays; conditions: for Corn plant response rating: postemergence
Summary of the method: as §2

large crabgrass = assay: Test B pre-/postemergence herbicide test; format: in vivo, Digitaria sanguinalis; conditions: for Crabgrass, Large plant response rating: postemergence
Summary of the method: as §2

giant foxtail = assay: Test B pre-/postemergence herbicide test; format: in vivo, Setaria faberi; conditions: for Foxtail, Giant plant response rating: postemergence
Summary of the method: as §2

lambsquarters = assay: Test B pre-/postemergence herbicide test; format: in vivo, Chenopodium album; conditions: for Lambsquarters plant response rating: postemergence
Summary of the method: as §2

morningglory = assay: Test B pre-/postemergence herbicide test; format: in vivo, Ipomoea coccinea; conditions: for Morningglory plant response rating: postemergence
Summary of the method: as §1

pigweed = assay: Test B pre-/postemergence herbicide test; format: in vivo, Amaranthus retroflexus; conditions: for Pigweed plant response rating: postemergence
Summary of the method: as §2

rice [2] = assay: Test B pre-/postemergence herbicide test; format: in vivo, Oryza sativa; conditions: 0 = no effect, 100 = complete control, preemergence
Summary of the method: as §2

velvetleaf = assay: Test B pre-/postemergence herbicide test; format: in vivo, Abutilon theophrasti; conditions: for Velvetleaf plant response rating: postemergence
Summary of the method: as §2

blackgrass = assay: Test B postemergence herbicide test; format: in vivo, Alopecurus myosuroides; conditions: postemergence, visual rating, scale 0 (no effect) to 100 (complete control)
Summary of the method: (§3)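 Postemergence plants were sprayed with formulated test chemicals at 2 to 18 cm height (1- to 4-leaf stage); paddy species were grown to the 2-leaf stage. After 13 to 15 days in a greenhouse, injury was rated visually against untreated controls on a 0–100 scale (0 = no effect, 100 = complete control).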

wheat = assay: Test B postemergence herbicide test; format: in vivo, Triticum aestivum; set-up: key to Wheat plant response rating: 0 = no effect, 100 = complete control; conditions: postemergence
Summary of the method: (§4)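 Read-out: visual comparison with controls, scored 0 to 100, where 100 means complete control and 0 no effect. Formulated chemicals were applied postemergence to plants 2–18 cm tall (1- to 4-leaf), or to flooded-paddy plants at the 2-leaf stage, then held 13 to 15 days under glass.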

wild oat = assay: Test B postemergence herbicide test; format: in vivo, Avena fatua; conditions: postemergence
Summary of the method: as §4

rice [3] = assay: Test B flooded paddy test; format: in vivo, Oryza sativa; conditions: 1000 g ai/ha, scale 0 to 100 (0 no effect, 100 complete control)
Summary of the method: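 Paddy species grown to the 2-leaf stage under flooding; blackgrass sprayed postemergence at 2–18 cm (1- to 4-leaf stage). Plants kept in a greenhouse for 13 to 15 days, then visually rated against controls on 0 (no effect) to 100 (complete control).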

[4] = tested on: small flower umbrella sedge; assay: Test B flooded paddy test; format: in vivo, Cyperus difformis; conditions: 1000 g ai/ha, scale 0 to 100 (0 no effect, 100 complete control)
Summary of the method: as §3

ducksalad [5] = assay: Test B flooded paddy test; format: in vivo, Heteranthera limosa; conditions: 1000 g ai/ha, scale 0 to 100 (0 no effect, 100 complete control)
Summary of the method: as §3

barnyardgrass [6] = assay: Test B flooded paddy test; format: in vivo, Echinochloa crus-galli; conditions: 1000 g ai/ha, scale 0 to 100 (0 no effect, 100 complete control)
Summary of the method: as §3

rice [7] = assay: Test C flooded paddy test; format: in vivo, Oryza sativa
Summary of the method: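 Plants were grown to the 1- to 4-leaf stage (2–18 cm) and then treated postemergence, or grown to the 2-leaf stage for the flooded paddy test. They were held in a greenhouse for 12 to 14 days and then scored by eye against controls, where 0 is no effect and 100 is complete control.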

[8] = tested on: smallflower umbrella sedge; assay: Test C flooded paddy test; format: in vivo, Cyperus difformis
ducksalad [9] = assay: Test C flooded paddy test; format: in vivo, Heteranthera limosa
barnyardgrass [10] = assay: Test C flooded paddy test; format: in vivo, Echinochloa crus-galli
Summary of the method: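 Postemergence sprays were applied to plants 2 to 18 cm tall (1- to 4-leaf stage); in the flooded paddy test, barnyardgrass was grown to the 2-leaf stage. After 12 to 14 days in a greenhouse, injury was visually rated against untreated controls on a 0–100 scale (100 = complete control).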

[11] = 125 g ai/ha, 0 = no effect, 100 = complete control, preemergence
[12] = 500 g ai/ha, visual rating, 0 = no effect, 100 = complete control, preemergence
[13] = 125 g ai/ha, visual rating, scale 0 (no effect) to 100 (complete control)
[14] = 500 g ai/ha, scale 0 to 100, 0 is no effect, 100 is complete control
[15] = 125 g ai/ha, scale 0 to 100 (0 no effect, 100 complete control)
[16] = 250 g ai/ha, scale of 0 to 100, 0 is no effect, 100 is complete control
[17] = 500 g ai/ha, visual rating after 12 to 14 days, scale 0 to 100 (0 no effect, 100 complete control)

## CCNC(=O)c1cncc(NC(=O)c2cc(C(C)(C)C)nn2CC)c1 [Compound 259]
Barnyardgrass [1]; [11]
  Barnyardgrass plant response rating (0 to 100 scale): 0
Barnyardgrass [1]; [12]
  Plant response rating, Barnyardgrass: 70
Barnyardgrass [1]; 125 g ai/ha, visual rating
  Barnyardgrass plant response rating: 0
Barnyardgrass [1]; 500 g ai/ha, visual rating
  Barnyardgrass plant response rating: 0
Surinam grass; [11]
  Surinam Grass plant response rating (0 to 100 scale): 0
Surinam grass; [12]
  Plant response rating, Surinam Grass: 30
Surinam grass; [13]
  Surinam Grass plant response rating: 10
Surinam grass; [14]
  Surinam Grass plant response rating: 20
cocklebur; [11]
  Cocklebur plant response rating (0 to 100 scale): 0
cocklebur; [12]
  Plant response rating, Cocklebur: 0
cocklebur; 125 g ai/ha, visual rating
  Cocklebur plant response rating: 0
cocklebur; 500 g ai/ha, visual rating
  Cocklebur plant response rating: 20
corn; [11]
  Corn plant response rating (0 to 100 scale): 0
corn; [12]
  Plant response rating, Corn: 0
corn; [13]
  Corn plant response rating: 10
corn; [14]
  Corn plant response rating: 20
Large crabgrass; [11]
  Crabgrass, Large plant response rating (0 to 100 scale): 0
Large crabgrass; [12]
  Plant response rating, Crabgrass, Large: 50
Large crabgrass; [13]
  Crabgrass, Large plant response rating: 0
Large crabgrass; [14]
  Crabgrass, Large plant response rating: 20
Giant foxtail; [11]
  Foxtail, Giant plant response rating (0 to 100 scale): 0
Giant foxtail; [12]
  Plant response rating, Foxtail, Giant: 70
Giant foxtail; [13]
  Foxtail, Giant plant response rating: 0
Giant foxtail; [14]
  Foxtail, Giant plant response rating: 0
lambsquarters; [11]
  Lambsquarters plant response rating (0 to 100 scale): 0
lambsquarters; [13]
  Lambsquarters plant response rating: 10
lambsquarters; [14]
  Lambsquarters plant response rating: 30
morningglory; [11]
  Morningglory plant response rating (0 to 100 scale): 0
morningglory; [12]
  Plant response rating, Morningglory: 90
morningglory; [13]
  Morningglory plant response rating: 0
morningglory; [14]
  Morningglory plant response rating: 0
pigweed; [11]
  Pigweed plant response rating (0 to 100 scale): 0
pigweed; [12]
  Plant response rating, Pigweed: 100
pigweed; [13]
  Pigweed plant response rating: 30
pigweed; [14]
  Pigweed plant response rating: 90
Rice [2]; 125 g ai/ha
  Rice plant response rating (0 to 100 scale): 0
Rice [2]; 500 g ai/ha, visual rating
  Plant response rating, Rice: 0
velvetleaf; [11]
  Velvetleaf plant response rating (0 to 100 scale): 0
velvetleaf; [12]
  Plant response rating, Velvetleaf: 0
velvetleaf; [13]
  Velvetleaf plant response rating: 0
velvetleaf; [14]
  Velvetleaf plant response rating: 0
blackgrass; 125 g ai/ha
  Blackgrass plant response rating: 10
blackgrass; 500 g ai/ha
  Blackgrass plant response rating: 20
wheat; [13]
  Wheat plant response rating: 10
wheat; [14]
  Wheat plant response rating: 20
Wild oat; [13]
  Oat, Wild plant response rating: 10
Wild oat; [14]
  Oat, Wild plant response rating: 20
Rice [3]
  Rice plant response rating: 70
[4]
  Sedge, Umbrella plant response rating: 70
Ducksalad [5]
  Ducksalad plant response rating: 90
Barnyardgrass [6]
  Barnyardgrass plant response rating: 30
Rice [7]; 62 g ai/ha, scale 0 to 100
  Rice plant response rating: 0
Rice [7]; [15]
  Rice plant response rating: 0
Rice [7]; [16]
  Rice plant response rating: 0
Rice [7]; [17]
  Plant response rating, Rice: 0
[8]; 62 g ai/ha, scale 0 to 100
  Sedge, Umbrella plant response rating: 0
[8]; [15]
  Sedge, Umbrella plant response rating: 35
[8]; [16]
  Sedge, Umbrella plant response rating: 55
[8]; [17]
  Plant response rating, Sedge, Umbrella: 70
Ducksalad [9]; 62 g ai/ha, scale 0 to 100
  Ducksalad plant response rating: 0
Ducksalad [9]; [15]
  Ducksalad plant response rating: 60
Ducksalad [9]; [16]
  Ducksalad plant response rating: 65
Ducksalad [9]; [17]
  Plant response rating, Ducksalad: 75
Barnyardgrass [10]; 62 g ai/ha, scale 0 to 100 (0 no effect, 100 complete control)
  Barnyardgrass plant response rating: 0
Barnyardgrass [10]; [15]
  Barnyardgrass plant response rating: 0
Barnyardgrass [10]; [16]
  Barnyardgrass plant response rating: 0
Barnyardgrass [10]; [17]
  Plant response rating, Barnyardgrass: 0
